Source: patent US20250114460A1, “NOVEL PLK1 DEGRADATION INDUCING COMPOUND” (UPPTHERA, INC., priority 2021, published 2025)
pIC50: −log10 of the molar value.

Assays:
NCI-H526 cell line = experiment: Cell viability assay for H526 cell (EZ-Cytox); assay type: cell-based; conditions: Homo sapiens, NCI-H526, 120 h; H526 cells, 5 days, 3000 nM to 0.46 nM
Method: (1) Culture of NCI-H526 Cell Line
(2) Treatment of Compounds of the Present Invention and Method of Cell Viability Assay
After treating the compound to each well to make the total volume of 200 μL, it was cultured in a CO2 incubator (Thermo Fisher Science, Cat. No. 4111) for 5 days.
The absorbance of the completely cultured sample was measured by setting the wavelength of a plate reader (BMG Labtech, CLARIOstar Plus) to […], and was measured after shaking for 3 minutes in a plate reader before measurement.
In Table 3, Activity represents IC50 value of each Exemplary Compound treatment group to H526 cell line (A: <30 nM, B: <50 nM, C: <100 nM, D: <200 nM, E: <400 nM).

PLK1 = target: T1, PLK1 (Homo sapiens, UniProt P53350); experiment: Luciferase assay for PLK1 in HeLa LgBit (Plk1-HiBit KI) cell line; assay type: cell-based; conditions: 300 nM compound, luminescence after 9 hours
T1 construct: endogenous in cells; host or cells: HeLa LgBit (Plk1-HiBit KI): HeLa stably expressing LgBit, with a CRISPR/Cas9 knock-in of HiBit at the endogenous PLK1 locus
T1 sequence (P53350 whole entry): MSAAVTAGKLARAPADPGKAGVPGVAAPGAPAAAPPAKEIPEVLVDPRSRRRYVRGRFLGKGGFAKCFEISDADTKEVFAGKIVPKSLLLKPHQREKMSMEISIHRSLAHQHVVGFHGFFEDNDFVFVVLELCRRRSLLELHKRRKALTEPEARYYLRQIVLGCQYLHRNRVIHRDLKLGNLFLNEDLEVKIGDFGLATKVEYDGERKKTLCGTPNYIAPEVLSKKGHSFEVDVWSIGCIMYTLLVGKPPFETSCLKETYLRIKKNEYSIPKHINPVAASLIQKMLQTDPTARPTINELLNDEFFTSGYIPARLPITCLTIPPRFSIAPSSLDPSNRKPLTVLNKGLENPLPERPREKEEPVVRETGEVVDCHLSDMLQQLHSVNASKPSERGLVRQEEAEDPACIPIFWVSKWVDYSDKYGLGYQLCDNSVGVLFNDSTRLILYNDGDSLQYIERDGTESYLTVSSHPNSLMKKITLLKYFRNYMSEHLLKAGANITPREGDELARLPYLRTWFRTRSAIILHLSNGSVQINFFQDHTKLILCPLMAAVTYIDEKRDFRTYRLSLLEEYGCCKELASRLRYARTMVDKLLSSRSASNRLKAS
How it was run: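 HeLa cells stably expressing LgBit, with HiBit knocked in at the C-terminus of endogenous Plk1, released from a 24 h 2 mM thymidine block and grown 18 h. Endurazine added, then compound at 300 nM; luminescence tracked in real time, expressed as ratio to DMSO.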

Activity: ratio of the luminescense value of each Exemplary Compound treatment group to DMSO treatment group (PLK1)	Compound	pIC50 (NCI-H526 cell line)
+++ (+++: <0.3)	COc1cc(C(=O)NC2CCN(CC3CN(c4cccc5c4C(=O)N(C4CCC(=O)NC4=O)C5=O)C3)CC2)ccc1Nc1ncc2c(n1)N(C1CCCC1)CC(F)(F)C(=O)N2C (stereo not shown) [Compound 135, 4-((9-cyclopentyl-7,7-difluoro-5-methyl-6-oxo-6,7,8,9-tetrahydro-5H-pyrimido[4,5-b][1,4]diazepin-2-yl)amino)-N-(1-((1-(2-(2,6-dioxopiperidin-3-yl)-1,3-dioxoisoindolin-4-yl)azetidin-3-yl)methyl)piperidin-4-yl)-3-methoxybenzamide]	> 7.30
++ (++<0.6)	COc1cc(C(=O)NC2CCN(CCOc3cccc4c3C(=O)N(C3CCC(=O)NC3=O)C4=O)CC2)c(F)cc1Nc1ncc2c(n1)N(C1CCCC1)CC(F)(F)C(=O)N2C (stereo not shown) [Compound 2, 4-((9-cyclopentyl-7,7-difluoro-5-methyl-6-oxo-6,7,8,9-tetrahydro-5H-pyrimido[4,5-b][1,4]diazepin-2-yl)amino)-N-(1-(2-((2-(2,6-dioxopiperidin-3-yl)-1,3-dioxoisoindolin-4-yl)oxy)ethyl)piperidin-4-yl)-2-fluoro-5-methoxybenzamide]	> 6.70
+++ (+++: <0.3)	COc1cc(C(=O)N[C@H]2CCCN(C(=O)CN3CCN(c4cccc5c4C(=O)N(C4CCC(=O)NC4=O)C5=O)CC3)C2)ccc1Nc1ncc2c(n1)N(C1CCCC1)CC(F)(F)C(=O)N2C (stereo partly drawn) [Compound 147, 4-((9-cyclopentyl-7,7-difluoro-5-methyl-6-oxo-6,7,8,9-tetrahydro-5H-pyrimido[4,5-b][1,4]diazepin-2-yl)amino)-N-((3S)-1-(2-(4-(2-(2,6-dioxopiperidin-3-yl)-1,3-dioxoisoindolin-4-yl)piperazin-1-yl)acetyl)piperidin-3-yl)-3-methoxybenzamide]	> 7.30
+++ (+++: <0.3)	COc1cc(C(=O)NC2CCN(CC3CN(c4ccc5c(c4)C(=O)N(C4CCC(=O)NC4=O)C5=O)C3)CC2)ccc1Nc1ncc2c(n1)N(C1CCCC1)CC(F)(F)C(=O)N2C (stereo not shown) [Compound 134, 4-((9-cyclopentyl-7,7-difluoro-5-methyl-6-oxo-6,7,8,9-tetrahydro-5H-pyrimido[4,5-b][1,4]diazepin-2-yl)amino)-N-(1-((1-(2-(2,6-dioxopiperidin-3-yl)-1,3-dioxoisoindolin-5-yl)azetidin-3-yl)methyl)piperidin-4-yl)-3-methoxybenzamide]	> 7.52
++ (++<0.6)	COc1cc(C(=O)NC2CCN(C(=O)CN3CCN(c4ccc5c(c4)C(=O)N(C4CCC(=O)NC4=O)C5=O)CC3)CC2)ccc1Nc1ncc2c(n1)N(C1CCCC1)CC(F)(F)C(=O)N2C (stereo not shown) [Compound 127, 4-((9-cyclopentyl-7,7-difluoro-5-methyl-6-oxo-6,7,8,9-tetrahydro-5H-pyrimido[4,5-b][1,4]diazepin-2-yl)amino)-N-(1-(2-(4-(2-(2,6-dioxopiperidin-3-yl)-1,3-dioxoisoindolin-5-yl)piperazin-1-yl)acetyl)piperidin-4-yl)-3-methoxybenzamide]	> 7.00
+++ (+++: <0.3)	COc1cc(C(=O)N[C@@H]2CCCN(C(=O)CN3CCN(c4cccc5c4C(=O)N(C4CCC(=O)NC4=O)C5=O)CC3)C2)ccc1Nc1ncc2c(n1)N(C1CCCC1)CC(F)(F)C(=O)N2C (stereo partly drawn) [Compound 146, 4-((9-cyclopentyl-7,7-difluoro-5-methyl-6-oxo-6,7,8,9-tetrahydro-5H-pyrimido[4,5-b][1,4]diazepin-2-yl)amino)-N-((3R)-1-(2-(4-(2-(2,6-dioxopiperidin-3-yl)-1,3-dioxoisoindolin-4-yl)piperazin-1-yl)acetyl)piperidin-3-yl)-3-methoxybenzamide]	> 7.30

The next lines start with the compound.

Compound	Activity: ratio of the luminescense value of each Exemplary Compound treatment group to DMSO treatment group (PLK1)	pIC50 (NCI-H526 cell line)
COc1cc(C(=O)N2CCC(CCN3CCN(c4cccc5c4C(=O)N(C4CCC(=O)NC4=O)C5=O)CC3)CC2)ccc1Nc1ncc2c(n1)N(C1CCCC1)CC(F)(F)C(=O)N2C (stereo not shown) [Compound 94, 4-(4-(2-(1-(4-((9-cyclopentyl-7,7-difluoro-5-methyl-6-oxo-6,7,8,9-tetrahydro-5H-pyrimido[4,5-b][1,4]diazepin-2-yl)amino)-3-methoxybenzoyl)piperidin-4-yl)ethyl)piperazin-1-yl)-2-(2,6-dioxopiperidin-3-yl)isoindoline-1,3-dione]	++ (++<0.6)	> 6.40
COc1cc(C(=O)NC2CCN(C(=O)CCCSc3cccc4c3C(=O)N(C3CCC(=O)NC3=O)C4=O)CC2)c(F)cc1Nc1ncc2c(n1)N(C1CCCC1)CC(F)(F)C(=O)N2C (stereo not shown) [Compound 42, 4-((9-cyclopentyl-7,7-difluoro-5-methyl-6-oxo-6,7,8,9-tetrahydro-5H-pyrimido[4,5-b][1,4]diazepin-2-yl)amino)-N-(1-(4-((2-(2,6-dioxopiperidin-3-yl)-1,3-dioxoisoindolin-4-yl)thio)butanoyl)piperidin-4-yl)-2-fluoro-5-methoxybenzamide]	++ (++<0.6)	> 7.00
COc1cc(C(=O)NN2CCN(C(=O)CCCNc3cccc4c3C(=O)N(C3CCC(=O)NC3=O)C4=O)CC2)c(F)cc1Nc1ncc2c(n1)N(C1CCCC1)CC(F)(F)C(=O)N2C (stereo not shown) [Compound 29, 4-((9-cyclopentyl-7,7-difluoro-5-methyl-6-oxo-6,7,8,9-tetrahydro-5H-pyrimido[4,5-b][1,4]diazepin-2-yl)amino)-N-(4-(4-((2-(2,6-dioxopiperidin-3-yl)-1,3-dioxoisoindolin-4-yl)amino)butanoyl)piperazin-1-yl)-2-fluoro-5-methoxybenzamide]	++ (++<0.6)	> 7.52
COc1cc(C(=O)NCCCOCCCOCCOc2cccc3c2CN(C2CCC(=O)NC2=O)C3=O)ccc1Nc1ncc2c(n1)N(C1CCCC1)CC(F)(F)C(=O)N2C (stereo not shown) [Compound 20, 4-((9-cyclopentyl-7,7-difluoro-5-methyl-6-oxo-6,7,8,9-tetrahydro-5H-pyrimido[4,5-b][1,4]diazepin-2-yl)amino)-N-(3-(3-(2-((2-(2,6-dioxopiperidin-3-yl)-1-oxoisoindolin-4-yl)oxy)ethoxy)propoxy)propyl)-3-methoxybenzamide]	++ (++<0.6)	> 6.70
COc1cc(C(=O)NN2CCC(N3CC4(CCN(c5cccc6c5CN(C5CCC(=O)NC5=O)C6=O)CC4)C3)CC2)ccc1Nc1ncc2c(n1)N(C(C)C)CC(F)(F)C(=O)N2C (stereo not shown) [Compound 218, 4-((7,7-difluoro-9-isopropyl-5-methyl-6-oxo-6,7,8,9-tetrahydro-5H-pyrimido[4,5-b][1,4]diazepin-2-yl)amino)-N-(4-(7-(2-(2,6-dioxopiperidin-3-yl)-1-oxoisoindolin-4-yl)-2,7-diazaspiro[3.5]nonan-2-yl)piperidin-1-yl)-3-methoxybenzamide]	++ (++<0.6)	> 7.30
